Test results reported in PubChem BioAssay AID1259411 (Chemical Carcinogenesis Research Information System (CCRIS), 2018).
Calls of active or inactive are those of the source. How the calls were made is not given here.

System: rodent carcinogenicity bioassays, tumor incidence
Assay: CCRIS carcinogenicity studies
Conditions: Dose: 0, Dose: 0
From the text: The CCRIS database contains chemical records with carcinogenicity, mutagenicity, tumor promotion, and tumor inhibition test results. It was developed by the National Cancer Institute (NCI). Data are derived from studies cited in primary journals, current awareness tools, NCI reports, and other sources. Test results have been reviewed by experts in carcinogenesis and mutagenesis.
CCRIS provides historical information from the years 1985 - 2011. It is no longer updated.
This is an archive assay for CCRIS carcinogenicity studies.

Q: How did the carcinogen call (Species: RAT, Strain/Sex: OSBORNE-MENDEL/FEMALE, Route: LUNG IMPLANT, 0.16, 0.83, 4.15 MG IN BEESWAX/TRIOCTANOIN (STUDY DURATION: LIFETIME), 0.16, 0.83, 4.15 MG IN BEESWAX/TRIOCTANOIN (STUDY DURATION: LIFETIME)) turn out when c1cc2ccc3ccc4ccc5cccc6c(c1)c2c3c4c56 was run?
A: Its carcinogen call is “inactive; negative”.

Q: CCOC(=O)CC(SP(=O)(OC)OC)C(=O)OCC (stereo not given) was tested. Which carcinogen call (Species: MOUSE, Strain/Sex: B6C3F1/FEMALE, Route: ORAL, 500, 1000 PPM IN DIET, 500, 1000 PPM IN DIET) did it give?
A: Its carcinogen call is “inactive; negative”.

Q: And the carcinogen call (Species: MOUSE, Strain/Sex: B6C3F1/MALE, Route: ORAL, 500, 1000 PPM IN DIET, 500, 1000 PPM IN DIET)?
A: The carcinogen call was “inactive; negative”.

Q: What about the carcinogen call (Species: RAT, Strain/Sex: F344/FEMALE, Route: ORAL, 500, 1000 PPM IN DIET, 500, 1000 PPM IN DIET) of the same molecule?
A: Its carcinogen call is “inactive; negative”.

Q: What about the carcinogen call (Species: RAT, Strain/Sex: F344/MALE, Route: ORAL, 500, 1000 PPM IN DIET, 500, 1000 PPM IN DIET) of the same molecule?
A: The carcinogen call was “inactive; negative”.

Q: Which results are given for CC(=O)C(N=Nc1ccc(-c2ccc(N=NC(C(C)=O)C(=O)Nc3ccccc3)c(Cl)c2)cc1Cl)C(=O)Nc1ccccc1 (stereo not given)?
A: carcinogen call (Species: MOUSE, Strain/Sex: B6C3F1/FEMALE, Route: ORAL, 2.5, 5% OF DIET, 2.5, 5% OF DIET): inactive; negative; carcinogen call (Species: MOUSE, Strain/Sex: B6C3F1/MALE, Route: ORAL, 2.5, 5% OF DIET, 2.5, 5% OF DIET): inactive; negative; carcinogen call (Species: RAT, Strain/Sex: F344/FEMALE, Route: ORAL, 2.5, 5% OF DIET, 2.5, 5% OF DIET): inactive; negative; carcinogen call (Species: RAT, Strain/Sex: F344/MALE, Route: ORAL, 2.5, 5% OF DIET, 2.5, 5% OF DIET): inactive; negative

Q: How did the carcinogen call (Species: MOUSE, Strain/Sex: C57BL/FEMALE, Route: ORAL, 800 PPM IN DIET FOR 97 WK (STUDY DURATION: 97 WK), Tumor Site: Type of Lesion: LIVER: HEPATOCELLULAR ADENOMA, HEPATOCELLULAR CARCINOMA) turn out when CC(=O)O[C@]1(C(C)=O)CC[C@H]2[C@@H]3C=C(Cl)C4=CC(=O)[C@@H]5C[C@@H]5[C@]4(C)[C@H]3CC[C@@]21C was run?
A: The carcinogen call was “active; positive”.

Q: And the carcinogen call (Species: MOUSE, Strain/Sex: C57BL/MALE, Route: ORAL, 800 PPM IN DIET FOR 104 WK (STUDY DURATION: 104 WK), Tumor Site: Type of Lesion: LIVER: HEPATOCELLULAR ADENOMA, HEPATOCELLULAR CARCINOMA)?
A: The carcinogen call was “active; positive”.

Q: And the carcinogen call (Species: RAT, Strain/Sex: WISTAR/MALE, Route: GAVAGE, 50 MG/KG IN TAP WATER 1/D FOR 21 D (STUDY DURATION: 79 WK))?
A: The carcinogen call was “inactive; negative”.

Q: Which results are given for Clc1cc2oc3c(Cl)c(Cl)c(Cl)cc3c2cc1Cl?
A: carcinogen call (Species: RAT, Strain/Sex: SPRAGUE-DAWLEY/FEMALE, Route: ORAL, 6, 20, 44, 92, 200 NG/KG/D (STUDY DURATION: 2 YRS), 6, 20, 44, 92, 200 NG/KG/D (STUDY DURATION: 2 YRS)): inactive; negative; carcinogen call (Species: RAT, Strain/Sex: WISTAR/MALE, Route: SUBCUTANEOUS, 4, 40 UG ONCE IN OLIVE OIL (STUDY DURATION: 104 WK), 4, 40 UG ONCE IN OLIVE OIL (STUDY DURATION: 104 WK), Tumor Site: Type of Lesion: LIVER: HEPATOCELLULAR CARCINOMA, NODULE, INJECTION SITE: TUMOR): active; positive; carcinogen call (Species: RAT, Strain/Sex: WISTAR/MALE, Route: SUBCUTANEOUS, 4, 40 UG ONCE IN OLIVE OIL (STUDY DURATION: 104 WK), 4, 40 UG ONCE IN OLIVE OIL (STUDY DURATION: 104 WK), Tumor Site: Type of Lesion: LIVER: NODULE, INJECTION SITE: TUMOR): active; positive; carcinogen call (Species: RAT, Strain/Sex: WISTAR/MALE, Route: SUBCUTANEOUS, 20 UG IN OLIVE OIL 1/WK INTO BACK FOR 4 WK (STUDY DURATION: 104 WK), Tumor Site: Type of Lesion: LIVER: NODULE, INJECTION SITE: TUMOR): active; positive; carcinogen call (Species: RAT, Strain/Sex: WISTAR/MALE, Route: SUBCUTANEOUS, 20 UG IN OLIVE OIL INTO BACK 1/WK FOR 4 WK (STUDY DURATION: 104 WK), Tumor Site: Type of Lesion: LIVER: HEPATOCELLULAR CARCINOMA, NODULE): active; positive; carcinogen call (Species: Rat, Strain/Sex: Harlan Sprague-Dawley/Female, Route: Gavage, 200 ng 5 d/wk in corn oil:acetone (99:1) for 30 wk and then vehicle for remainder of 2 yr study, Tumor Site: Type of Lesion: Oral Mucosa: Gingival squamous cell carcinoma (1/53, 3/50) Pancreas: Acinar adenoma or carcinoma (0/53, 2/49)): active; positive trend (not statistically significant); for stop study vs. controls, inc; carcinogen call (Species: Rat, Strain/Sex: Harlan Sprague-Dawley/Female, Route: Gavage, 6, 20, 44, 92, 200 ng in corn oil:acetone (99:1) 5 d/wk for 2 yrs, 6, 20, 44, 92, 200 ng in corn oil:acetone (99:1) 5 d/wk for 2 yrs, Tumor Site: Type of Lesion: Liver: Hepatocellular adenoma (1/53, 0/53, 1/53, 0/52, 2/53, 4/53), Cholangiocarcinoma (0/53, 0/53, 0/53, 1/52, 1/53, 2/): active; positive (ntp reports as some evidence; findings in lung, pancreas, and uterus d

Q: For O=C1c2ccccc2C(=O)c2c(O)cccc21, which carcinogen call (Species: RAT, Strain/Sex: ACI/N/MALE, Route: ORAL, 1% IN BASAL DIET FOR DURATION OF STUDY (STUDY DURATION: 480 D), Tumor Site: Type of Lesion: CECUM: ADENOMA, ADENOCARCINOMA, COLON: ADENOMA, ADENOCARCINOMA, LIVER: TUMOR, STOMACH: TUMOR, Tumor Site: Type of Lesion: CECUM: ADENOMA, ADENOCARCINOMA, COLON: ADENOMA, ADENOCARCINOMA, LIVER: TUMOR, STOMACH: TUMOR) is on record?
A: The carcinogen call was “active; positive”.

Q: For C[C@]12CC[C@@H]3c4ccc(O)c(O)c4CC[C@H]3[C@@H]1CC[C@@H]2O, which carcinogen call (Species: MOUSE, Strain/Sex: CD-1/FEMALE, Route: SUBCUTANEOUS, 2 UG/D IN CORN OIL ON DAYS 1-5 OF LIFE (STUDY DURATION: 12-18 WK), Tumor Site: Type of Lesion: UTERUS: ADENOCARCINOMA) is on record?
A: Its carcinogen call is “active; positive”.

Q: What about the carcinogen call (Species: Mouse, Strain/Sex: CD-1/Female (45/experimental group; 40/control group), Route: Subcutaneous, 2 ug in peanut oil, dosed on days 1-5 of life and retained for 1.5 (4 animals), 3 (4 animals), 6 (4 animals), 9 (4 an, 2 ug in peanut oil, dosed on days 1-5 of life and retained for 1.5 (4 animals), 3 (4 animals), 6 (4 animals), 9 (4 an, Tumor Site: Type of Lesion: Uterus and ovaries examined) of the same molecule?
A: The carcinogen call was “inactive; negative; nonneoplastic changes observed”.

Q: For CC(=O)Nc1ccc(/C=C/c2ccccc2)cc1, which carcinogen call (Species: RAT, Strain/Sex: HOLTZMAN/MALE, Route: ORAL, 0.0046% IN DIET FOR WK 0-13 (STUDY DURATION: 40 WK), Tumor Site: Type of Lesion: EAR DUCT GLAND: CARCINOMA) is on record?
A: The carcinogen call was “active; positive”.

Q: What does the source list for OCc1c2ccccc2c2ccc3cccc4ccc1c2c43?
A: carcinogen call (Species: MOUSE, Strain/Sex: B6C3F1/MALE, Route: INTRAPERITONEAL, 0.0025, 0.005, 0.015 UMOL/G ONCE AT 12 DAYS OF AGE (STUDY DURATION: 10 MO), 0.0025, 0.005, 0.015 UMOL/G ONCE AT 12 DAYS OF AGE (STUDY DURATION: 10 MO), Tumor Site: Type of Lesion: LIVER: HEPATOMA): active; positive; carcinogen call (Species: RAT, Strain/Sex: SPRAGUE-DAWLEY/FEMALE, Route: SUBCUTANEOUS, 0.2 UMOL 3/WK FOR 20 DOSES (STUDY DURATION: 52 WK), Tumor Site: Type of Lesion: INJECTION SITE: SARCOMA): active; positive
